Data on five compounds can be found in patent US8741871B2, “Trehalose compound, method for producing same, and pharmaceutical product containing the compound” (priority 2008, dated 2014).

In series [1] the test system is Salmonella typhmurium TA98. The experiment in a line: Mutagenicity test (Ames test). The note with it: TA98, in the presence or absence of S9 mix; FIG. 11.
The subject of series [2] is IL-6, TNF-α, IFN-γ in mouse plasma. The experiment in a line: Measurement of IL-6, TNF-α and IFN-γ released into peripheral blood of test compound administered mouse. The note with it: 100 μg/mouse intravenous, two hours later; for IL-6-releasing activity (mouse plasma IL-6 concentration) compared with TDCM: FIG. 6; for IFN-γ-releasing activity (mouse plasma IFN-γ concentration) compared with TDCM: FIG. 7.

The test system of series [3] is Welch bacillus (Type A; NTCT8237). Type of series: in vivo. The note with it: 100 μg/mouse i.p. three hours before Welch bacillus 2.4×10^7 cells/mouse i.p. On the procedure:
As test compounds, 1 mg each of the compound synthesized by the method described in Production Example α-1 and TDCM were weighed. Emulsion solutions of the test compounds (1 mg/ml) were prepared in the same manner as described above.
[…] of Brain Heart Infusion (BHI) (Difco) powders were dissolved in 200 ml of distilled water. 40 ml of the obtained solution (hereinafter this solution is referred to as a “BHI medium”) was withdrawn with a measuring pipette, and it was then added to a 200-ml flask, followed by performing a high-pressure steam sterilization (121° C., 20 minutes). In addition, 5 ml of the BHI medium was added to two screw-top test tubes, and they were then subjected to a high-pressure steam sterilization. Moreover, a glass tube-equipped rubber plug (with a cotton plug) and a glass tube were also subjected to a high-pressure steam sterilization. In a clean bench, an appropriate amount of bacteria for preservation, which had grown on a cooked meat medium, was collected with a sterilized Pasteur pipette, and it was then inoculated on the BHI medium in the aforementioned sterilized screw-top test tube. Subsequently, it was incubated at 37° C. overnight.
In a clean bench, bacteria that had grown in the screw-top test tube (wherein the inside of the […] in which bacteria had grown became clouded, and gas was generated) was transferred into a 200-ml Erlenmeyer flask, which contained 40 ml of BHI medium. A glass tube was inserted into the medium, so as to carry out nitrogen substitution for 10 minutes. Subsequently, the glass tube-equipped rubber plug (with a cotton plug) was equipped in the Erlenmeyer flask (since Welch bacillus generates gas, it is necessary to make an air vent), and incubation was then carried out at 37° C. for 4 to 5 hours. Thereafter, the cultured Welch bacillus was transferred into a centrifuge tube, it was then centrifuged (9000 rpm, 15 minutes), and the supernatant was then removed. 20 ml of sterilized normal saline solution was added to the precipitate, so that the bacteria were suspended therein. The suspension was centrifuged (9000 rpm, 15 minutes), and the supernatant was then removed.
Mice (ICR, 6-week-old) were divided into three groups, and the following test was then carried out.
An emulsion solution containing the test compound, an emulsion solution containing TDCM, or an emulsion solution alone, which was to be used as a control, was intraperitoneally administered in an amount of 100 μg/mouse to a group of four mice (100 μl/mouse, in the case of the emulsion solution alone). Three hours later, Welch bacillus (2.4×10^7 cells/mouse) was intraperitoneally administered to the mice. Thereafter, the condition of the mice was observed.

Series [4] deals with Welch bacillus toxin (recombinant α-toxin). The note with it: in vivo, ip.
A further series relates to THP-1 cells. The series is described as follows: Analysis of cytotoxicity to THP-1 cells using trypan blue. Type of series: cell-based, human. The note with it: treated for 2 hours and for 24 hours; FIG. 10. On the procedure: The cultured THP-1 cells were transferred into a 50-ml centrifuge tube in a clean bench. The cells were then centrifuged at 1,000 rpm for 5 minutes at 20° C., and the supernatant was then removed. […] 10 μl of this cell suspension was added to a sterile Eppendorf tube, to which 990 μl of serum-free RPMI 1640 medium had previously been added, so that the solution was 100-fold diluted. The number of cells in 10 μl of the 100-fold diluted solution was counted with a blood cell counter, and the cell suspension was diluted with serum-free RPMI 1640 medium to a cell density of 1×10^7 cells/ml.
A test compound (Example 9)/DMSO solution, or DMSO was added to 100 μl of RPMI medium to a concentration of 200 μM. Thereafter, ultrasonic wave was applied to the mixture for 5 seconds. It is to be noted that a test compound, 6-O-(2-decyldecanoyl)-α-glucose (hereinafter referred to as a “control compound B”), and TDCM were used to prepare positive controls in the same manner as described above. In addition, a negative control was prepared by adding no test compounds (vehicle). […] Subsequently, 20 μl of 0.3% trypan blue/PBS (−) was added to the reaction solution so as to suspend the reaction solution therein, and thereafter, the survival rate of the cells was immediately analyzed using a cell number measuring apparatus (CYRORECON).

On to `Nc1ccc2cc3ccccc3cc2c1` [2-aminoanthracene, reference compound], for which the “mutagenicity (Ames test, number of His colonies)” value in series [1] is recorded as “positive”.

With `CCCCCCCCCCCCCC(CCCCCCCCCCCCC)CC(=O)OCC1O[C@H](O[C@H]2OC(COC(=O)CC(CCCCCCCCCCCCC)CCCCCCCCCCCCC)[C@@H](O)C(O)C2O)C(O)C(O)[C@@H]1O` (stereo partly drawn) [Example 13, 6,6′-bis-O-(3-tridecylhexadecanoyl)-α,α′-trehalose], in series [2], the “IL-6-releasing activity (mouse plasma IL-6 concentration) compared with TDCM” value is “approximately a half of” and the “IFN-γ-releasing activity (mouse plasma IFN-γ concentration) compared with TDCM” value is “approximately a half of”.

With `CCCCCCCCCCCCCCC(CCCCCCCCCCCCCC)CC(=O)OCC1O[C@H](O[C@H]2OC(COC(=O)CC(CCCCCCCCCCCCCC)CCCCCCCCCCCCCC)[C@@H](O)C(O)C2O)C(O)C(O)[C@@H]1O` (stereo partly drawn) [Example 14, 6,6′-bis-O-(3-tetradecylheptadecanoyl)-α,α′-trehalose], in series [2], the “IL-6-releasing activity (mouse plasma IL-6 concentration) compared with TDCM” value was “approximately equivalent to” and the “IFN-γ-releasing activity (mouse plasma IFN-γ concentration) compared with TDCM” value is given as “approximately equivalent to”.

With `CCCCCCCCCCCCCCC[C@@H](O)[C@@H](CCCCCCCCCCCCCC)C(=O)OC[C@H]1O[C@H](O[C@H]2O[C@H](COC(=O)[C@H](CCCCCCCCCCCCCC)[C@H](O)CCCCCCCCCCCCCCC)[C@@H](O)[C@H](O)[C@H]2O)[C@H](O)[C@@H](O)[C@@H]1O` [TDCM, trehalose dicorynomycolate, reference compound], the “Number of surviving mice/number of treated mice, 2 hours later” value in series [3] (2 hours later) and in series [4] was 4/4 each time. Also, the “Number of surviving mice/number of treated mice, 6 hours later” value in series [3] (6 hours later) and in series [4] was 4/4 in each case. The “Number of surviving mice/number of treated mice, 12 hours later” value in series [3] (12 hours later) and in series [4] was 4/4 in each case. The “Number of surviving mice/number of treated mice, 24 hours later” value in series [3] (24 hours later) was 4/4; in series [4] it was 2/4. Further, the “Number of surviving mice/number of treated mice, 48 hours later” value in series [3] (48 hours later) was 4/4; in series [4], 2/4.

Take `CCCCCCCCCCC(CCCCCCCC)C(=O)OC[C@H]1O[C@H](O)[C@H](O)[C@@H](O)[C@@H]1O` (stereo partly drawn) [control compound B, 6-O-(2-decyldecanoyl)-α-glucose, reference compound]: in the series with THP-1 cells, the “cytotoxicity to THP-1 cells (survival rate, trypan blue staining)” value is “cytotoxicity was observed”.
